PubChem BioAssay AID2060888 (Molecular Pharmacology Branch, DTP, NCI, 2025)

Tested on: 695427-040-R-J1-PDC complex spheroid viability
Test: Anticancer human tumor 695427-040-R-J1-PDC patient-derived colon adenocarcinoma cell line growth inhibition [RAS]
Conditions: for IC50: curve of first compound; for viability, T/C: stronger effect = lower value
Excerpt: RAS pathway inhibitors in Combinations in Complex Spheroids
A high-throughput screen of multi-cell type tumor spheroids was designed to identify active combinations of RAS pathway inhibitors and targeted small molecules. Complex spheroids include a stromal component modeled by human endothelial cells (HUVEC) and fibroblasts modeled by human mesenchymal stem cells (MSCs). The concentration ranges selected for each drug and investigational agent were based upon clinically achievable concentrations if the clinical Cmax of the agent was known.
Compounds. The drugs and investigational agents: abemaciclib (NSC768073), cobimetinib (NSC768068), divarasib (GDC6063, NSC841802), docetaxel (NSC628503), GDC-1971 (RLY-1971, NSC841576), gemcitabine (NSC613327), inavolisib (NSC800729), ipatasertib (NSC767898), KB-0742 (NSC834161), MRTX-1133 (NSC836407), osimertinib (NSC779217), RMC-4630 (NSC839698), RMC-6236 (NSC851965), RMC-6291 (NSC852671), Ro-3306 (NSC812927), sapanisertib (NSC764658), SN-38 (NSC673596), staurosporine (NSC755774), SY5609 (NSC837396), and tovorafenib (DAY101, NSC766906), were obtained from the National Cancer Institute (NCI) Developmental Therapeutics Program Chemical Repository. The FDA-approved anticancer drug set is available from the NCI Developmental Therapeutics Program. […] The stock solutions were prepared in dimethyl sulfoxide (DMSO, Sigma-Aldrich, St. Louis, MO, cat. D2650) at 800-fold the tested concentration and stored at -70 degrees C prior to their use. All drugs and investigational agents were tested over a range starting from a high concentration at or near the clinical Cmax and decreasing in half-log increments. If the clinical Cmax for an agent had not been determined, the highest concentration tested was 10 microM.
Cell Culture. All cells were maintained in an incubator at 37 degrees C and 5% CO2 with 95% humidity. The PDC lines were cultured according to standard operating procedures established by the NCI PDMR. All PDCs were thawed and cultured in Matrigel-coated flasks prepared with a working solution of 1X Ham's F-12 nutrient mix, without supplementation (Invitrogen, Waltham, MA, cat. 11765054), 100 U/mL penicillin-streptomycin (Invitrogen, cat. 15140122), and 2.5% Matrigel (Corning Inc., Corning, NY, cat. 354248) for the first three passages. The 362531-283-R-J2-PDC and 782815-120-R-J1-PDC lines were cultured in 6C/Colon 1B media, which includes advanced DMEM/F-12 (Thermo Fisher Scientific, cat. 12634028), 10 mM HEPES (Thermo Fisher Scientific, cat. 15630080), 1X GlutaMAX supplement (Thermo Fisher Scientific, cat. 35050061), 0.1 mg/mL primocin (InvivoGen, San Diego, CA, cat. ant-pm-2), 10% defined fetal bovine serum, heat inactivated (HyClone Laboratories Inc., Logan, UT, cat. SH30070.03HI), 50% L-WRN conditioned media (ATCC, cat. CRL-3276), 1.25 mM N-Acetyl-L-cysteine (Sigma-Aldrich, cat. A9165), 10 mM nicotinamide (Sigma-Aldrich, cat. N0636), 1X B-27 supplement (Thermo Fisher Scientific, cat. 17504044), 1X N-2 supplement (Thermo Fisher Scientific, cat. 17502048), 50 ng/mL human EGF (Thermo Fisher Scientific, cat. PHG0311), and 10 microM Y-27632 dihydrochloride (Tocris Bioscience, cat. 1254). The K12877-001-R-J1-PDC line was cultured in 6I media, which includes all 6C/Colon 1B media plus 10 ng/mL human FGF-10 (PeproTech, cat. 100-26), 1 ng/mL human FGF-2 (PeproTech, cat. 100-18B), 1 µM prostaglandin E2 (Tocris Bioscience, cat. 2296), […] hydrocortisone (Sigma-Aldrich, cat. H4001), and […] bovine insulin (Sigma-Aldrich, cat. I6634). The K86415-001-R-J1-PDC line was cultured in 6D media, which includes all 6C/Colon 1B media components minus the L-WRN conditioned media. The 485176-168-R4-J1-PDC was cultured in PANC media, which includes all 6C/Colon 1B media plus 100 ng/mL human FGF-10 (PeproTech, cat. 100-26), 500 nM SB-431542 (Selleckchem, cat. S1067), and 10 nM gastrin (Tocris Bioscience, cat. 3006). […]

[1] = second compound 0.0316 µM, first compound 0.0316 µM
[2] = second compound 0.0316 µM, first compound 0.1 µM
[3] = second compound 0.0316 µM, first compound 0.316 µM
[4] = second compound 0.0316 µM, first compound 1 µM
[5] = second compound 0.1 µM, first compound 0.0316 µM
[6] = second compound 0.1 µM, first compound 0.1 µM
[7] = second compound 0.1 µM, first compound 0.316 µM
[8] = second compound 0.1 µM, first compound 1 µM
[9] = second compound 0.316 µM, first compound 0.0316 µM
[10] = second compound 0.316 µM, first compound 0.1 µM
[11] = second compound 0.316 µM, first compound 0.316 µM
[12] = second compound 0.316 µM, first compound 1 µM
[13] = second compound 1 µM, first compound 0.0316 µM
[14] = second compound 1 µM, first compound 0.1 µM
[15] = second compound 1 µM, first compound 0.316 µM
[16] = second compound 1 µM, first compound 1 µM
[17] = second compound 3.16 µM, first compound 0.0316 µM
[18] = second compound 3.16 µM, first compound 0.1 µM
[19] = second compound 3.16 µM, first compound 0.316 µM
[20] = second compound 3.16 µM, first compound 1 µM
[21] = second compound 10 µM, first compound 0.0316 µM
[22] = second compound 10 µM, first compound 0.1 µM
[23] = second compound 10 µM, first compound 0.316 µM
[24] = second compound 10 µM, first compound 1 µM
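Further: viability read after seven days of drug exposure.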
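Wherever viability, T/C is given: 100% = DMSO vehicle control viability.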

## CC1(O)CCCC1n1c(=O)c(C(F)F)cc2cnc(NC3CCN(S(C)(=O)=O)CC3)nc21 (centres undefined) + C#Cc1c(F)ccc2cc(O)cc(-c3ncc4c(N5CC6CCC(C5)N6)nc(OCC56CCCN5CC(F)C6)nc4c3F)c12
Second compound 0.0316 µM
  IC50: > 10 µM
Second compound 0.1 µM
  IC50: > 10 µM
Second compound 0.316 µM
  IC50: 8.96 µM
Second compound 1 µM
  IC50: 7.32 µM
Second compound 3.16 µM
  IC50: 4.29 µM
Second compound 10 µM
  IC50: < 0.0316 µM
[1]
  viability, T/C: 95.4%
[2]
  viability, T/C: 95.5%
[3]
  viability, T/C: 103%
[4]
  viability, T/C: 123%
Second compound 0.0316 µM, first compound 3.16 µM
  viability, T/C: 122%
Second compound 0.0316 µM, first compound 10 µM
  viability, T/C: 57.4%
[5]
  viability, T/C: 104%
[6]
  viability, T/C: 94.7%
[7]
  viability, T/C: 109%
[8]
  viability, T/C: 120%
Second compound 0.1 µM, first compound 3.16 µM
  viability, T/C: 114%
Second compound 0.1 µM, first compound 10 µM
  viability, T/C: 52.5%
[9]
  viability, T/C: 84%
[10]
  viability, T/C: 80.6%
[11]
  viability, T/C: 97.6%
[12]
  viability, T/C: 103%
Second compound 0.316 µM, first compound 3.16 µM
  viability, T/C: 104%
Second compound 0.316 µM, first compound 10 µM
  viability, T/C: 45.4%
[13]
  viability, T/C: 82.7%
[14]
  viability, T/C: 75.3%
[15]
  viability, T/C: 78.7%
[16]
  viability, T/C: 89.8%
Second compound 1 µM, first compound 3.16 µM
  viability, T/C: 84.2%
Second compound 1 µM, first compound 10 µM
  viability, T/C: 38.1%
[17]
  viability, T/C: 59.7%
[18]
  viability, T/C: 54.7%
[19]
  viability, T/C: 64.3%
[20]
  viability, T/C: 57.4%
Second compound 3.16 µM, first compound 3.16 µM
  viability, T/C: 57.3%
Second compound 3.16 µM, first compound 10 µM
  viability, T/C: 30%
[21]
  viability, T/C: 42.9%
[22]
  viability, T/C: 41.9%
[23]
  viability, T/C: 42.1%
[24]
  viability, T/C: 43.4%
Second compound 10 µM, first compound 3.16 µM
  viability, T/C: 36.1%
Second compound 10 µM, first compound 10 µM
  viability, T/C: 15.6%

## CCN1CCN(Cc2ccc(Nc3ncc(F)c(-c4cc(F)c5nc(C)n(C(C)C)c5c4)n3)nc2)CC1 + C#Cc1c(F)ccc2cc(O)cc(-c3ncc4c(N5CC6CCC(C5)N6)nc(OCC56CCCN5CC(F)C6)nc4c3F)c12
Second compound 0.0316 µM
  IC50: > 1 µM
Second compound 0.1 µM
  IC50: > 1 µM
Second compound 0.316 µM
  IC50: > 1 µM
Second compound 1 µM
  IC50: > 1 µM
Second compound 3.16 µM
  IC50: > 1 µM
Second compound 10 µM
  IC50: < 0.00316 µM
Second compound 0.0316 µM, first compound 0.00316 µM
  viability, T/C: 94.9%
Second compound 0.0316 µM, first compound 0.01 µM
  viability, T/C: 102%
[1]
  viability, T/C: 85.8%
[2]
  viability, T/C: 88.4%
[3]
  viability, T/C: 100%
[4]
  viability, T/C: 106%
Second compound 0.1 µM, first compound 0.00316 µM
  viability, T/C: 93%
Second compound 0.1 µM, first compound 0.01 µM
  viability, T/C: 92.9%
[5]
  viability, T/C: 90.5%
[6]
  viability, T/C: 79.4%
[7]
  viability, T/C: 91.6%
[8]
  viability, T/C: 96.3%
Second compound 0.316 µM, first compound 0.00316 µM
  viability, T/C: 83.1%
Second compound 0.316 µM, first compound 0.01 µM
  viability, T/C: 85.3%
[9]
  viability, T/C: 78.1%
[10]
  viability, T/C: 78.6%
[11]
  viability, T/C: 77.7%
[12]
  viability, T/C: 85.6%
Second compound 1 µM, first compound 0.00316 µM
  viability, T/C: 75.2%
Second compound 1 µM, first compound 0.01 µM
  viability, T/C: 68.1%
[13]
  viability, T/C: 61%
[14]
  viability, T/C: 60.5%
[15]
  viability, T/C: 74.1%
[16]
  viability, T/C: 71.3%
Second compound 3.16 µM, first compound 0.00316 µM
  viability, T/C: 53.3%
Second compound 3.16 µM, first compound 0.01 µM
  viability, T/C: 52.9%
[17]
  viability, T/C: 51.2%
[18]
  viability, T/C: 48.2%
[19]
  viability, T/C: 50.6%
[20]
  viability, T/C: 62%
Second compound 10 µM, first compound 0.00316 µM
  viability, T/C: 41.1%
Second compound 10 µM, first compound 0.01 µM
  viability, T/C: 45.2%
[21]
  viability, T/C: 36.4%
[22]
  viability, T/C: 33.1%
[23]
  viability, T/C: 30.8%
[24]
  viability, T/C: 32.6%
